According to EP4603105A1, “PHARMACEUTICAL COMPOSITION CONTAINING CYCLIC COMPOUND HAVING SELECTIVE KRAS INHIBITORY EFFECT AGAINST HRAS AND NRAS” (CHUGAI SEIYAKU KABUSHIKI KAISHA, priority 2022, dated 2024):
Where a SMILES comes first, the peptide text is derived from it. Bridges are numbered along the chain shown (N, C = ends). [ ]: non-standard residue; d: D form. The star is where a group is joined. hPhe(3-Cl-4-CF3) = N[C@@H](CCc1ccc(C(F)(F)F)c(Cl)c1)C(=O)O; NPrPhe(4-CF3) = CCCN[C@@H](Cc1ccc(C(F)(F)F)cc1)C(=O)O; NMeGly(cPent) = CN[C@H](C(=O)O)C1CCCC1; Pro(4,4-F2) = O=C(O)[C@@H]1CC(F)(F)CN1; Hyp = O=C(O)[C@@H]1C[C@@H](O)CN1; NMeL = CN[C@@H](CC(C)C)C(=O)O; Morpholide = C1CN(*)CCO1; Ac5c = NC1(C(=O)O)CCCC1; Aze = O=C(O)[C@@H]1CCN1; Ac4c = NC1(C(=O)O)CCC1; Sar = CNCC(=O)O

Legend:
[1] = target: GDP-bound KRAS wild-type protein (Homo sapiens, UniProt P01116); experiment: Binding to KRAS by surface plasmon resonance (SPR), dissociation constant KD; conditions: 1:1 binding model
Method in brief: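 Compound binding is evaluated by SPR single-cycle kinetics, with concentrations added intermittently from low to high for 75 s each. Target surfaces carry GDP-loaded biotinylated Avi-RAS at about 100–300 RU, regenerated after each cycle; temperature 30°C. A 1:1 binding model gives KD.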

HRAS wild-type protein = HRAS wild-type protein (Homo sapiens, UniProt P01112); experiment: Binding to HRAS by surface plasmon resonance (SPR), KD and KD ratio to KRAS
Method in brief: (§1)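 SPR, 30°C: Avi-biotin RAS·GDP captured via Biotin CAPture (~100–300 RU); running buffer HBS pH 7.4, 1 mM DTT, 10 mM MgCl2, 0.01% Tween 20, 10 µM GDP, 4% DMSO. Single-cycle kinetics, 100 µL/min, 75 s injections; 1:1 model → KD.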

[2] = system: human lung cancer strain NCI-H441; format: cell-based
Method in brief: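 Proliferation was scored by […] measured after the reagent was added to cultures kept at 37°C in 5% carbon dioxide.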

[3] = target: GDP-bound NRAS wild-type protein (Homo sapiens, UniProt P01111); experiment: Binding to NRAS by surface plasmon resonance (SPR), KD and KD ratio to KRAS
Method in brief: as §1

[4] = ratio of KD for HRAS wild-type protein to KD for KRAS
[5] = ratio of KD for GDP-bound NRAS wild-type protein to KD for KRAS

HRAS wild-type protein, sequence (P01112 whole entry): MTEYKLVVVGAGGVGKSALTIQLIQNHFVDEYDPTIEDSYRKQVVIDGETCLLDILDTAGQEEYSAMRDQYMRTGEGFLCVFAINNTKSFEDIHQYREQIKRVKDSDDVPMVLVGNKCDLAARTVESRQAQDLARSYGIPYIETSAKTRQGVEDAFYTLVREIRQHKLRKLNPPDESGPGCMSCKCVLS
GDP-bound NRAS wild-type protein, sequence (P01111 whole entry): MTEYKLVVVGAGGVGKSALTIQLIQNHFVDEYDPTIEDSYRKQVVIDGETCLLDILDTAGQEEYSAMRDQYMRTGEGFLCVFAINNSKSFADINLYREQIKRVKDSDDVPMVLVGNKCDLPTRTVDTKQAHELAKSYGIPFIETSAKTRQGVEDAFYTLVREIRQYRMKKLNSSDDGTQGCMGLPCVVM
GDP-bound KRAS wild-type protein, sequence (P01116 1-188 isoform P01116-2): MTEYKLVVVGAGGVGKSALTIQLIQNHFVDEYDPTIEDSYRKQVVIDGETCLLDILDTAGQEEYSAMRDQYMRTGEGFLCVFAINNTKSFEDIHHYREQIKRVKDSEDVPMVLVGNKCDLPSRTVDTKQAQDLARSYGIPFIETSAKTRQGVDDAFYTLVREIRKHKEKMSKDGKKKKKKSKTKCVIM

Structure (SMILES)	Kd [1]	IC50 [2]	Kd ([1]; Single Cycle Kinetics)	HRAS /KRAS (HRAS wild-type protein; [4])	NRAS /KRAS [3, 5]	HRAS /KRAS (HRAS wild-type protein; ratio of KD value for HRAS wild-type protein to KD value for KRAS (SPR))	NRAS /KRAS ([3]; ratio of KD value for GDP-bound NRAS wild-type protein to KD value for KRAS (SPR))	HRAS /KRAS (HRAS wild-type protein; ratio of the KD value with respect to HRAS wild-type protein to the KD value with respect to KRAS)	NRAS /KRAS ([3]; ratio of the KD value with respect to GDP-bound NRAS wild-type protein to the KD value with respect to KRAS)
CCC[C@H]1C(=O)N[C@@H]([C@@H](C)CC)C(=O)N(C)CC(=O)N(C)[C@H]2C/C=C\CCN(C2=O)[C@@H](Cc2ccc(C)cc2)C(=O)N(C)CC(=O)N[C@@H](CCc2ccc(C(F)(F)F)c(OC)c2)C(=O)N2CC3(CC3)C[C@H]2C(=O)NC2(CC(C)(C)C2)C(=O)N(C)[C@@H]([C@@H](C)CC)C(=O)N(C)[C@H](C(=O)N(C)C)CC(=O)N1C [PP3011]	0.58 nM	31.1 nM	–	B (a compound having 3 or more and less than 10 is denoted as B)	A (a compound having 10 or more and less than 20 is denoted as A)	–	–	–	–
CCCN1C(=O)C[C@@H](C(=O)N(C)C)N(C)C(=O)[C@H](C2CCCC2)N(C)C(=O)C2(CCC2)NC(=O)[C@@H]2C[C@@H](OCC)CN2C(=O)[C@H](CCc2cc(F)c(C(F)(F)F)c(F)c2)NC(=O)CN(C)C(=O)[C@H](Cc2ccc(C(F)(F)F)cc2)N2CC/C=C\C[C@@H](C2=O)N(C)C(=O)CN(C)C(=O)[C@H]([C@@H](C)CC)NC(=O)[C@@H]1CC(C)C [PP1825]	–	8 nM	0.14 nM	–	–	A (a compound having 10 or more and less than 20 is denoted as A)	A (a compound having 10 or more and less than 20 is denoted as A)	–	–
CCO[C@@H]1C[C@H]2C(=O)NC3(CCC3)C(=O)N(C)[C@@H](C3CCCC3)C(=O)N(C)[C@H](C(=O)N(C)CC)CC(=O)N(C)[C@H]3CCCCCCc4ccc(cc4)C[C@@H](C(=O)N(C)CC(=O)N[C@@H](CCc4ccc(C(F)(F)F)c(OC)c4)C(=O)N2C1)N1CC/C=C\C[C@@H](C1=O)N(C)C(=O)CN(C)C(=O)[C@H]([C@@H](C)CC)NC3=O [PP2263]	–	19.5 nM	0.98 nM	–	–	–	–	A (a compound having 10 or more and less than 20 is denoted as A)	A (a compound having 10 or more and less than 20 is denoted as A)

The remaining compounds from weak to strong by IC50 [2], led by results:

Kd [1]	IC50 [2]	Kd ([1]; Single Cycle Kinetics)	Structure (SMILES)	HRAS /KRAS (HRAS wild-type protein; [4])	NRAS /KRAS [3, 5]	HRAS /KRAS (HRAS wild-type protein; ratio of KD value for HRAS wild-type protein to KD value for KRAS (SPR))	NRAS /KRAS ([3]; ratio of KD value for GDP-bound NRAS wild-type protein to KD value for KRAS (SPR))	HRAS /KRAS (HRAS wild-type protein; ratio of the KD value with respect to HRAS wild-type protein to the KD value with respect to KRAS)	NRAS /KRAS ([3]; ratio of the KD value with respect to GDP-bound NRAS wild-type protein to the KD value with respect to KRAS)
3.7 nM	177 nM	–	CCCN1C(=O)CN(C)C(=O)[C@@H]2CCN2C(=O)[C@H]([C@@H](C)CC)NC(=O)[C@H](CC(C)C)N(C)C(=O)C[C@@H](C(=O)N2CCOCC2)NC(=O)[C@H](C2CCCC2)N(C)C(=O)C2(CCC2)NC(=O)[C@@H]2CC(F)(F)CN2C(=O)[C@H](CCc2ccc(C(F)(F)F)c(Cl)c2)NC(=O)CN(C)C(=O)[C@@H]1Cc1ccc(C(F)(F)F)cc1 [PP0340] ([NMeL]I[Aze][Sar][NPrPhe(4-CF3)][Sar][hPhe(3-Cl-4-CF3)][Pro(4,4-F2)][Ac4c][NMeGly(cPent)]D-Morpholide; lactam N-11)	B (a compound having 3 or more and less than 10 is denoted as B)	B (a compound having 3 or more and less than 10 is denoted as B)	–	–	–	–
1.4 nM	135 nM	–	CCCN1C(=O)CN(C)C(=O)[C@@H]2CCN2C(=O)[C@H]([C@@H](C)CC)NC(=O)[C@H](CC(C)C)N(C)C(=O)C[C@@H](C(=O)N2CCOCC2)NC(=O)[C@H](C2CCCC2)N(C)C(=O)C2(CCCC2)NC(=O)[C@@H]2C[C@@H](OCC)CN2C(=O)[C@H](CCc2ccc(C(F)(F)F)c(Cl)c2)NC(=O)CN(C)C(=O)[C@@H]1Cc1ccc(C(F)(F)F)cc1 [PP0341] ([NMeL]I[Aze][Sar][NPrPhe(4-CF3)][Sar][hPhe(3-Cl-4-CF3)][Hyp](Et)[Ac5c][NMeGly(cPent)]D-Morpholide; lactam N-11)	B (a compound having 3 or more and less than 10 is denoted as B)	B (a compound having 3 or more and less than 10 is denoted as B)	–	–	–	–
0.49 nM	38.9 nM	–	CCO[C@@H]1C[C@H]2C(=O)NC3(CC(C)(C)C3)C(=O)N(C)[C@@H](C3CCCC3)C(=O)N(C)[C@H](C(=O)N(C)C)CC(=O)N(C)[C@@H]([C@H](C)OC)C(=O)N[C@@H]([C@@H](C)CC)C(=O)N(C3CC3)CC(=O)N(C)[C@H]3C/C=C\CCN(C3=O)[C@@H](Cc3ccc(C)cc3)C(=O)N(C)CC(=O)N[C@@H](CCc3ccc(C(F)(F)F)c(OC)c3)C(=O)N2C1 [PP3191]	A (a compound having 10 or more and less than 20 is denoted as A)	A (a compound having 10 or more and less than 20 is denoted as A)	–	–	–	–
0.21 nM	7.1 nM	–	CCO[C@@H]1C[C@H]2C(=O)NC3(CC(C)(C)C3)C(=O)N(C)[C@@H](C3CCCC3)C(=O)N(C)[C@H](C(=O)N(C)C)CC(=O)N(C)[C@@H]([C@@H](C)OC)C(=O)N[C@@H]([C@@H](C)CC)C(=O)N(C3CC3)CC(=O)N(C)[C@H]3C/C=C\CCN(C3=O)[C@@H](Cc3ccc(C(F)(F)F)cc3)C(=O)N(C)CC(=O)N[C@@H](CCc3ccc(C(F)(F)F)c(OC)c3)C(=O)N2C1 [PP3200]	A (a compound having 10 or more and less than 20 is denoted as A)	A (a compound having 10 or more and less than 20 is denoted as A)	–	–	–	–
